Measurements as given in patent US20180136216A1, “Biomarkers for a Combination Therapy Comprising Lenvatinib and Everolimus” (EISAI R&D MANAGEMENT CO., LTD., priority 2015, published 2018).

Tested on: metastatic renal cell carcinoma (RCC)
Assay: Phase 2 study (NCT01136733) of lenvatinib, everolimus or the combination; baseline serum Ang2 versus OS and PFS
Type: in vivo, human
Experimental: Purpose: A Phase 2 study for lenvatinib was performed in patients with metastatic renal cell carcinoma (RCC) following a VEGF-targeted therapy. The importance of angiogenesis in RCC highlights the need to understand clinical mechanisms of escape from anti-angiogenic therapy, such as everolimus. This clinical biomarker analysis was conducted to identify predictive markers of clinical benefit in RCC patients upon the combination therapy with lenvatinib and everolimus compared to everolimus monotherapy.
The purpose of this analysis was to measure Ang2 level in blood samples, such as serum, obtained from patients in clinical trials at both pre- and post-treatment with lenvatinib, everolimus or the combination thereof, and to identify blood biomarkers which can be used to predict whether patients will need the combination therapy.
Materials and Methods: Patients having metastatic renal cell carcinoma after a prior VEGF-targeted therapy received lenvatinib mesylate (“lenvatinib”), everolimus, or the combination thereof until disease progression or development of unmanageable toxicities. Patients received lenvatinib at a dose of 24 mg (as lenvatinib free base; the same shall apply hereinafter) oral once daily, everolimus at a dose of 10 mg oral once daily, or lenvatinib at 18 mg and everolimus at 5 mg oral once daily. 153 patients were treated and evaluated for efficacy and molecular correlative analysis. This study was a part of a Phase 2 multicenter study of lenvatinib (NCT01136733). Pre- and post-treatment serum samples were collected for biomarker analysis. Serum samples were collected on Cycle 1 Day 1 (pre-treatment), Cycle 2 Day 15, and Day 1 of every cycle from Cycle 2, and at off-treatment. Each Cycle consisted of 4 weeks (28 days). Ang2 detection enzyme immunoassay kit (EIDIA Co., Ltd.) was used for the quantification of serum Ang2 level. The association between the concentration at Cycle 1 Day 1 (“baseline level”) of Ang2 and clinical outcomes, such as progression free survival (PFS) and overall survival (OS), was assessed. PFS is defined as the time from the date of randomization to the date of first documentation of disease progression or death, whichever occurs first. PFS was based on investigator review data using RECIST 1.1. OS is defined as the time from randomization until death from any cause. “Randomization” means randomization of a patient into a test group or a control group when therapy plan for a patient is determined.

[1] = low baseline Ang2 (≤3760 pg/ml)

In the case of `CO[C@H]1C[C@@H]2CC[C@@H](C)[C@@](O)(O2)C(=O)C(=O)N2CCCC[C@H]2C(=O)O[C@H]([C@H](C)C[C@@H]2CC[C@@H](OCCO)[C@H](OC)C2)CC(=O)[C@H](C)/C=C(\C)[C@@H](O)[C@@H](OC)C(=O)[C@H](C)C[C@H](C)/C=C/C=C/C=C/1C` [everolimus, (1R,9S,12S,15R,16E,18R,19R,21R,23S,24E,26E,28E,30S,32S,35R)-1,18-dihydroxy-12-{(1R)-2-[(1S,3R,4R)-4-(2-hydroxyethoxy)-3-methoxycyclohexyl]-1-methylethyl}-19,30-dimethoxy-15,17,21,23,29,35-hexamethyl-11,36-dioxa-4-aza-tricyclo[30.3.1.0^4,9]hexatriaconta-16,24,26,28-tetraene-2,3,10,14,20-pentaone], the “median PFS” value (high baseline Ang2 (>3760 pg/ml)) is reported as 5.5 months, the “median OS” value (high baseline Ang2 (>3760 pg/ml, 33rd percentile cut-off)) is reported as 12.2 months and the “median OS” value (higher baseline Ang2, 25th percentile cut-off (3565 pg/ml)) is reported as 12.2 months. For the same compound, the “median OS” value (higher baseline Ang2, 70th percentile cut-off (5650 pg/ml)) was 12.2 months, the “median OS” value [1] was “not reached” and the “median PFS” value [1] was 5.6 months.
